Experimental data: publication PMC12226733, “Evolution of iGluR ligand specificity, polyamine regulation, and ion selectivity inferred from a placozoan epsilon receptor” (Communications Biology, 2025)
Several values for one entry are separate records, joined by “and”; a condition that tells them apart may be missing. Identical values can stand only once. Like-named read-outs stand apart in the source and are kept apart here.

How the values were obtained:
[1] = molecular target: T1, GluA2 Q607S (Homo sapiens, UniProt P42262, Q607S); assay: outside-out patch clamp, block by intracellular spermine, HEK-293T/17 cells; type: biochemical;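 for Normalized conductance (Gnorm): normalized to each receptor's own maximal conductance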
T1 construct: host or cells: HEK-293T/17
T1 sequence (P42262 25-883 Q607S): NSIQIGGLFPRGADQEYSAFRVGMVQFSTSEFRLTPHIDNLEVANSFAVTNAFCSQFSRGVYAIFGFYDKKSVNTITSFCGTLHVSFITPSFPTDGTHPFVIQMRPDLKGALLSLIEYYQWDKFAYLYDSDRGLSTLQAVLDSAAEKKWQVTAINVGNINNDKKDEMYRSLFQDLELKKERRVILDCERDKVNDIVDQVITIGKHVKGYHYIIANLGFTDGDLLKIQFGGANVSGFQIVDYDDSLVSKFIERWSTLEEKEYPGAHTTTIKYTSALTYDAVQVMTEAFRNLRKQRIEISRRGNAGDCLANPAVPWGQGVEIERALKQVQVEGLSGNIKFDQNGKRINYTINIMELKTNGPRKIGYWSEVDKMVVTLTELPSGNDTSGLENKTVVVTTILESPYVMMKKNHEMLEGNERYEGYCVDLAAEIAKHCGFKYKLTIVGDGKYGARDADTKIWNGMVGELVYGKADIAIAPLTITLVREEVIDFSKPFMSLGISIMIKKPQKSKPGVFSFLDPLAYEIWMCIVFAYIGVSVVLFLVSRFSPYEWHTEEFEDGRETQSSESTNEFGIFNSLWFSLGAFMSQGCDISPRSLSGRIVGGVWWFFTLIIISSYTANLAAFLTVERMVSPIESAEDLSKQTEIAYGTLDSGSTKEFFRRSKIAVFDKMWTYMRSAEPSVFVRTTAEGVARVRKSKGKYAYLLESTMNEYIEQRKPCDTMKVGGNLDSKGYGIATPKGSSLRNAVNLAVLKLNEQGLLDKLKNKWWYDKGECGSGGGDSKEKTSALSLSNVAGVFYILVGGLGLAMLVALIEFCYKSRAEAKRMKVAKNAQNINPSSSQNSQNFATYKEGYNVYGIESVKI
Method: (§1) Parallel experiments were carried out in human GluA2 homotetramers bearing equivalent Q/R/N and +4 site mutations to compare the regulation of voltage-dependent polyamine block within the broader context of mammalian receptors. Experimental design remained the same, except for using 10 mM glutamate as the agonist used to evoke membrane currents (Fig. 7a, d, g, and j). […] Their properties were accordingly compared to wildtype GluA2(Q) co-expressed with TARP-γ2.
(§2) HEK-293T/17 cells (ATCC) were maintained in MEM supplemented with GlutaMAX and 10% fetal bovine serum (FBS) at 37 °C and 5% CO2. […] Transient transfections were carried out 48 h post-plating using the calcium phosphate precipitation method. After 6–8 hours, cells were washed twice with PBS and maintained in fresh medium. Cells transfected with mammalian GluA2 cDNA (plasmid vector described above) were returned to an incubator at 37 °C for 24–48 hours and cells transfected with Epsilon GluE1αA were incubated at 28 °C for 48–72 hours. In cells co-transfected with TARP-γ2, 30 μM NBQX was included in the medium to minimize AMPAR/auxiliary-induced cytotoxicity. All constructs were co-transfected with a plasmid encoding enhanced green fluorescent protein (eGFP) to identify transfected cells. Electrophysiology responses were recorded from outside-out patches excised from transfected cells. Recording pipettes were composed of borosilicate glass (3 to 6 megaohm, King Precision Glass) coated with dental wax to reduce electrical noise. All recordings were performed using Axopatch 200B amplifier (Molecular Devices, LLC). Current records were filtered at 5 or 10 kHz and sampled at 25–50 kHz. Series resistance (3 to 12 megaohms) was compensated by 95%. Recordings were performed at a range of holding potentials from −100 mV to 100 mV to study polyamine block. Data was acquired using pClamp9 software (Molecular Devices, LLC). All experiments were performed at room temperature. All chemicals were purchased from Sigma-Aldrich, unless otherwise indicated. External solution contained (in mM): 150 NaCl, 5 HEPES, 0.1 CaCl2, 0.1 MgCl, and […], pH 7.3–7.4. […] The osmotic pressure of all solutions was adjusted to 295 to 300 mOsm with sucrose. […] Stocks were thawed on the day of the experiment and used to prepared agonist-containing external solutions. Raw data for all electrophysiology experiments are provided in Supplementary Data 3. Current-voltage (I-V) relationships were fit using Origin 7 (OriginLab) using a ninth order polynomial function to estimate the reversal potential (Vrev).
(§3) Agonist-evoked membrane conductance (G) was calculated using the following equation: G=I/(V−Vrev)
(§4) Conductance-voltage (G-V) relationships were fit using Origin 7 (OriginLab) with the single permeant blocker model as done previously[46]: G=Gmax/1+[Spm]/Kd Where Gmax is the maximal conductance, [Spm] is the internal Spm concentration, and Kd is the dissociation constant.
(§5) Kd is defined as: Kd=koff+kperm/kon=sumofexitrates/bindingrate
(§6) And redefined as: Kd=g*exp(V/h)+L*exp(V/k) Where h and k are voltage dependencies of g and L, respectively, and at 0 mV: g=koff/konandL=kperm/kon

[2] = molecular target: T2, GluA2(Q) wt (Homo sapiens, UniProt P42262); assay: as above; type: biochemical; conditions: single recordings and AVG;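 for Normalized current (Inorm) GluA2 wild type: current normalized to the maximum current response at −100 mV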
T2 construct: host or cells: HEK-293T/17
T2 sequence (P42262 25-883): as the sequence (P42262 25-883 Q607S) above, with S583Q counted along it
Method: as §1, §2, §3, §4, §5, §6

[3] = GluA2 Q670S, 10 mV, single recordings and AVG
[4] = GluA2 Q670S, 20 mV, single recordings and AVG
[5] = GluA2 Q670S, 30 mV, single recordings and AVG
[6] = GluA2 Q670S, 40 mV, single recordings and AVG
[7] = GluA2 Q670S, 50 mV, single recordings and AVG
[8] = GluA2 Q670S, 60 mV, single recordings and AVG
[9] = GluA2 Q670S, 70 mV, single recordings and AVG
[10] = GluA2 Q670S, 80 mV, single recordings and AVG
[11] = GluA2 Q670S, 90 mV, single recordings and AVG
[12] = GluA2 Q670S, 100 mV, single recordings and AVG
[13] = GluA2 Q670S, -100 mV, single recordings and AVG

Question: Which “Normalized current (Inorm)” value [1] does the source give for `NCCCNCCCCNCCCN` [spermine] here?
Answer: The value was -0.0262.

Question: And the “h, voltage dependency of block onset” value ([1]; GluA2 Q607S)?
Answer: Its value is −14.0 ± 2.3 mV.

Question: And the “k, voltage dependency of block relief” value ([1]; GluA2 Q607S)?
Answer: Its value is 164.4 ± 31.1 mV.

Question: And the Kd ([1]; GluA2 Q607S, 30 µM internal Spm, 10 mM glutamate, read-out: Kd(0mV))?
Answer: The Kd was 36.2 ± 6.7 µM.

Question: What about the “Normalized conductance (Gnorm)” value ([1]; GluA2 Q670S, 0 mV, single recording) of the same molecule?
Answer: The value was 0.58.

Question: And the “Normalized conductance (Gnorm)” value [1, 3]?
Answer: Its value is 0.61 and 0.49 and 0.58 and 0.59 and 0.57.

Question: What about the “Normalized current (Inorm)” value [1, 3] of the same molecule?
Answer: Its value is 0.0362 and 0.03 and 0.04 and 0.0351 and 0.0359.

Question: What about the “Normalized conductance (Gnorm)” value [1, 4] of the same molecule?
Answer: The value was 0.63 and 0.50 and 0.57 and 0.64 and 0.59.

Question: And the “Normalized current (Inorm)” value [1, 4]?
Answer: Its value is 0.095 and 0.09 and 0.10 and 0.11.

Question: And the “Normalized conductance (Gnorm)” value [1, 5]?
Answer: Its value is 0.65 and 0.52 and 0.57 and 0.61 and 0.59.

Question: What about the “Normalized current (Inorm)” value [1, 5] of the same molecule?
Answer: The value was 0.16 and 0.15 and 0.17.

Question: What about the “Normalized conductance (Gnorm)” value [1, 6] of the same molecule?
Answer: The value was 0.67 and 0.55 and 0.57 and 0.65 and 0.61.

Question: What about the “Normalized current (Inorm)” value [1, 6] of the same molecule?
Answer: Its value is 0.23 and 0.22 and 0.25.

Question: What about the “Normalized conductance (Gnorm)” value [1, 7] of the same molecule?
Answer: Its value is 0.68 and 0.55 and 0.59 and 0.63.

Question: What about the “Normalized current (Inorm)” value [1, 7] of the same molecule?
Answer: Its value is 0.29 and 0.28 and 0.33 and 0.30.

Question: And the “Normalized conductance (Gnorm)” value [1, 8]?
Answer: Its value is 0.74 and 0.61 and 0.65 and 0.67.

Question: And the “Normalized current (Inorm)” value [1, 8]?
Answer: The value was 0.39 and 0.36 and 0.38.

Question: And the “Normalized conductance (Gnorm)” value [1, 9]?
Answer: Its value is 0.69 and 0.61 and 0.66.

Question: What about the “Normalized current (Inorm)” value [1, 9] of the same molecule?
Answer: The value was 0.43 and 0.41 and 0.48 and 0.44.

Question: What about the “Normalized conductance (Gnorm)” value [1, 10] of the same molecule?
Answer: Its value is 0.72 and 0.65 and 0.71 and 0.69.

Question: And the “Normalized current (Inorm)” value [1, 10]?
Answer: The value was 0.51 and 0.57 and 0.53.

Question: And the “Normalized conductance (Gnorm)” value [1, 11]?
Answer: The value was 0.70 and 0.62 and 0.71 and 0.68.

Question: What about the “Normalized current (Inorm)” value [1, 11] of the same molecule?
Answer: Its value is 0.56 and 0.55 and 0.64 and 0.59.

Question: What about the “Normalized conductance (Gnorm)” value [1, 12] of the same molecule?
Answer: Its value is 0.72 and 0.65 and 0.76 and 0.71.

Question: What about the “Normalized current (Inorm)” value [1, 12] of the same molecule?
Answer: The value was 0.65 and 0.77 and 0.69.

Question: What about the “Normalized conductance (Gnorm)” value ([1]; GluA2 Q670S, -10 mV, single recordings and AVG) of the same molecule?
Answer: Its value is 0.58 and 0.48 and 0.57 and 0.51 and 0.53.

Question: What about the “Normalized conductance (Gnorm)” value ([1]; GluA2 Q670S, -20 mV, single recordings and AVG) of the same molecule?
Answer: Its value is 0.55 and 0.46 and 0.51 and 0.49 and 0.50.

Question: And the “Normalized conductance (Gnorm)” value ([1]; GluA2 Q670S, -30 mV, single recordings and AVG)?
Answer: The value was 0.54 and 0.46 and 0.52 and 0.50.

Question: And the “Normalized conductance (Gnorm)” value ([1]; GluA2 Q670S, -40 mV, single recordings and AVG)?
Answer: The value was 0.55 and 0.48 and 0.52 and 0.45 and 0.50.

Question: And the “Normalized conductance (Gnorm)” value ([1]; GluA2 Q670S, -50 mV, single recordings and AVG)?
Answer: Its value is 0.57 and 0.50 and 0.52 and 0.49.

Question: And the “Normalized conductance (Gnorm)” value ([1]; GluA2 Q670S, -60 mV, single recordings and AVG)?
Answer: Its value is 0.64 and 0.55 and 0.54 and 0.56 and 0.57.

Question: And the “Normalized conductance (Gnorm)” value ([1]; GluA2 Q670S, -70 mV, single recordings and AVG)?
Answer: Its value is 0.72 and 0.61 and 0.64.

Question: And the “Normalized conductance (Gnorm)” value ([1]; GluA2 Q670S, -80 mV, single recordings and AVG)?
Answer: The value was 0.81 and 0.68 and 0.75 and 0.67 and 0.73.

Question: And the “Normalized conductance (Gnorm)” value ([1]; GluA2 Q670S, -90 mV, single recordings and AVG)?
Answer: Its value is 0.92 and 0.76 and 0.83 and 0.81.

Question: What about the “Normalized conductance (Gnorm)” value [1, 13] of the same molecule?
Answer: The value was 0.86 and 0.95 and 0.90.

Question: What about the “Normalized current (Inorm)” value [1, 13] of the same molecule?
Answer: Its value is -1.00.

Question: What about the “Normalized conductance (Gnorm) GluA2 wild type” value ([2]; 10 mV) of the same molecule?
Answer: The value was 0.13 and 0.07 and 0.09 and 0.12 and 0.14 and 0.11.

Question: And the “Normalized current (Inorm) GluA2 wild type” value ([2]; 30 mV)?
Answer: The value was 0.0172.

Question: And the “Normalized current (Inorm) GluA2 wild type” value ([2]; 70 mV)?
Answer: Its value is 0.19 and 0.25 and 0.20 and 0.28 and 0.32 and 0.36 and 0.27.

Question: What about the “Normalized conductance (Gnorm) GluA2 wild type” value ([2]; 80 mV) of the same molecule?
Answer: Its value is 0.39 and 0.55 and 0.61 and 0.72 and 0.70 and 0.59.

Question: What about the “Normalized current (Inorm) GluA2 wild type” value ([2]; 80 mV) of the same molecule?
Answer: The value was 0.31 and 0.42 and 0.39 and 0.43 and 0.54 and 0.52 and 0.44.

Question: And the “Normalized conductance (Gnorm) GluA2 wild type” value ([2]; 90 mV)?
Answer: Its value is 0.49 and 0.69 and 0.70 and 0.77 and 0.89 and 0.81 and 0.72.

Question: And the “Normalized current (Inorm) GluA2 wild type” value ([2]; 90 mV)?
Answer: The value was 0.44 and 0.59 and 0.56 and 0.62 and 0.76 and 0.68 and 0.61.

Question: What about the “Normalized conductance (Gnorm) GluA2 wild type” value ([2]; 100 mV) of the same molecule?
Answer: The value was 0.66 and 0.80 and 0.82 and 0.89 and 0.94.

Question: And the “Normalized current (Inorm) GluA2 wild type” value ([2]; 100 mV)?
Answer: The value was 0.66 and 0.77 and 0.74 and 0.80 and 0.89.

Question: What about the “Normalized current (Inorm) GluA2 wild type” value ([2]; -10 mV) of the same molecule?
Answer: The value was -0.0326.

Question: What about the “Normalized current (Inorm) GluA2 wild type” value ([2]; -20 mV) of the same molecule?
Answer: Its value is -0.0532.
